Measured values: ChEMBL document CHEMBL5614396, “Structure-Activity Relationship Studies in Benzothiadiazoles as Novel Vaccine Adjuvants” (J Med Chem, 2024)

Key:
BMDC [1] = experiment: Vaccine adjuvant activity in Balb/c mouse BMDC assessed as increase in IL-12 production at 10 uM incubated for 20 hrs by ELISA (reference value: 1.35 +/-0.1 ng/ml); assay type: functional
THP-1 = experiment: Vaccine adjuvant activity in human THP-1 cells expressing CD63-Turbo-luciferase and CD9-Emerald green fluorescent protein reporter assessed as extracellular vesicle release by measuring reporter activation at 10 uM incubated for 48 hrs by TurboLuc luciferase based chemiluminescence assay (reference value: 0%); assay type: functional
[2] = Cytotoxicity against Balb/c mouse BMDC assessed as cell viability at 10 uM incubated for 20 hrs by MTT assay (reference value: 100 +/-0.6%); assay type: toxicity, cell-based; details: BMDC (bone marrow-derived dendritic cells), read-out: Activity
BMDC [3] = experiment: Vaccine adjuvant activity in Balb/c mouse BMDC assessed as induction of Ca2+ influx at 10 uM by Fura-2/8-AM dye based fluorescence analysis (reference value: 0%); assay type: functional

`CCc1noc(-c2c(NS(=O)(=O)c3cccc4nsnc34)sc(C)c2C)n1` showed an Activity (BMDC [1]) of 1.71 ng/mL, an Activity (THP-1) of 0.4% and a viability at 20 h, 10 µM [2] of 65.9%. For the same compound, the Activity (BMDC [3]) was -3.1%.

Compound `CCOC(=O)c1c(N(C)S(=O)(=O)c2cccc3nsnc23)sc(C)c1C` has an Activity (BMDC [1]) of 1.19 ng/mL, an Activity (THP-1) of -2% and a viability at 20 h, 10 µM [2] of 108%. For the same compound, the Activity (BMDC [3]) was -39.3%.

`Cc1sc(NS(=O)(=O)c2cccc3nsnc23)c(C(=O)OCCCCCN)c1C` showed an Activity (BMDC [1]) of 1.43 ng/mL, an Activity (THP-1) of 0.7% and a viability at 20 h, 10 µM [2] of 103%. For the same compound, the Activity (BMDC [3]) was -2.6%.

Compound `CCCCCCOC(=O)c1c(NS(=O)(=O)c2cccc3nsnc23)sc(C)c1C` has an Activity (BMDC [1]) of 3.44 ng/mL, an Activity (THP-1) of 185.3% and a viability at 20 h, 10 µM [2] of 106%. The Activity (BMDC [3]) was 245%.

Work on `CCOC(=O)c1c(NS(=O)(=O)c2cccc3cccnc23)sc(C)c1C` yielded an Activity (BMDC [1]) of 2 ng/mL, an Activity (THP-1) of 60.4% and a viability at 20 h, 10 µM [2] of 110%. For the same compound, the Activity (BMDC [3]) was 99.7%.

`CCOC(=O)c1c(NS(=O)(=O)c2cccc3nsnc23)sc2c1CCN(C(=O)OC(C)(C)C)C2` gave an Activity (BMDC [1]) of 2.27 ng/mL, an Activity (THP-1) of 100.4% and a viability at 20 h, 10 µM [2] of 104%. It also gave an Activity (BMDC [3]) of 79.2%.

For `Cc1cc(NS(=O)(=O)c2cccc3nsnc23)sc1C`, the Activity (BMDC [1]) was 1.4 ng/mL, the Activity (THP-1) was -0.9% and the viability at 20 h, 10 µM [2] was 113%. The Activity (BMDC [3]) was -11.4%.

In the case of `CCOC(=O)c1c(NS(=O)(=O)c2cccc3nc(O)[nH]c23)sc(C)c1C`, the Activity (BMDC [1]) is reported as 0.59 ng/mL, the Activity (THP-1) is reported as 0.4% and the viability at 20 h, 10 µM [2] is reported as 88.1%. For the same compound, the Activity (BMDC [3]) was -14.3%.

In the case of `CCOC(=O)c1c(NS(=O)(=O)c2cccc3nsnc23)sc(-c2ccccn2)c1C`, the Activity (BMDC [1]) is reported as 1.01 ng/mL, the Activity (THP-1) is reported as 30.5% and the viability at 20 h, 10 µM [2] is reported as 68.1%. It also gave an Activity (BMDC [3]) of 8.1%.

Compound `CCOC(=O)c1c(NS(=O)(=O)c2cccc3nc[nH]c23)sc(C)c1C` has an Activity (BMDC [1]) of 1.51 ng/mL, an Activity (THP-1) of 2% and a viability at 20 h, 10 µM [2] of 111%. For the same compound, the Activity (BMDC [3]) was -14.2%.

For `CCOC(=O)c1c(NS(=O)(=O)c2ccc(Br)c3ccncc23)sc(C)c1C`, the Activity (BMDC [1]) was 1.12 ng/mL, the Activity (THP-1) was 16.1% and the viability at 20 h, 10 µM [2] was 82.7%. For the same compound, the Activity (BMDC [3]) was -9.4%.

In the case of `CCOC(=O)c1c(C)cccc1NS(=O)(=O)c1cccc2nsnc12`, the Activity (BMDC [1]) is reported as 1.14 ng/mL, the Activity (THP-1) is reported as 1% and the viability at 20 h, 10 µM [2] is reported as 88.8%. The Activity (BMDC [3]) was -14.2%.

`CCCOC(=O)c1c(NS(=O)(=O)c2cccc3nsnc23)sc(C)c1C` showed an Activity (BMDC [1]) of 3.5 ng/mL, an Activity (THP-1) of 156.3% and a viability at 20 h, 10 µM [2] of 140%. The Activity (BMDC [3]) was 147.4%.

In the case of `CCOC(=O)c1nc(C)sc1NS(=O)(=O)c1cccc2nsnc12`, the Activity (BMDC [1]) is reported as 0.92 ng/mL, the Activity (THP-1) is reported as 1.7% and the viability at 20 h, 10 µM [2] is reported as 93.3%. It also gave an Activity (BMDC [3]) of -7.9%.

Compound `CCNC(=O)c1c(NS(=O)(=O)c2cccc3nsnc23)sc(C)c1C` has an Activity (BMDC [1]) of 1.7 ng/mL, an Activity (THP-1) of -0.6% and a viability at 20 h, 10 µM [2] of 100%. It also gave an Activity (BMDC [3]) of -28.3%.

Work on `CCOC(=O)c1c(NS(=O)(=O)c2cccc3nn[nH]c23)sc(C)c1C` yielded an Activity (BMDC [1]) of 2.11 ng/mL, an Activity (THP-1) of -0.7% and a viability at 20 h, 10 µM [2] of 102%. For the same compound, the Activity (BMDC [3]) was -9.6%.

Work on `COC(=O)c1c(NS(=O)(=O)c2cccc3nsnc23)sc(C)c1C` yielded an Activity (BMDC [1]) of 1.75 ng/mL, an Activity (THP-1) of 30.1% and a viability at 20 h, 10 µM [2] of 114%. It also gave an Activity (BMDC [3]) of 83.6%.

In the case of `CCOC(=O)c1c(NS(=O)(=O)c2cccc3nsnc23)sc(-c2cccnc2)c1C`, the Activity (BMDC [1]) is reported as 1.05 ng/mL, the Activity (THP-1) is reported as 75.3% and the viability at 20 h, 10 µM [2] is reported as 85.5%. For the same compound, the Activity (BMDC [3]) was 11.8%.

`CCOC(=O)c1c(NS(=O)(=O)c2cccc3nsnc23)sc2c1CCN(CC)C2` showed an Activity (BMDC [1]) of 1.84 ng/mL, an Activity (THP-1) of 1.3% and a viability at 20 h, 10 µM [2] of 108%. For the same compound, the Activity (BMDC [3]) was -10.8%.

Work on `CCOC(=O)c1c(NS(=O)(=O)c2cccc3nsnc23)sc(Br)c1C` yielded an Activity (BMDC [1]) of 1.03 ng/mL, an Activity (THP-1) of 81.1% and a viability at 20 h, 10 µM [2] of 104%. The Activity (BMDC [3]) was 102.9%.

`Cc1sc(NS(=O)(=O)c2cccc3nsnc23)c(C(=O)OCCCCCNC(=O)OC(C)(C)C)c1C` gave an Activity (BMDC [1]) of 4.14 ng/mL, an Activity (THP-1) of 111.5% and a viability at 20 h, 10 µM [2] of 183%. It also gave an Activity (BMDC [3]) of 103.9%.

For `CCOC(=O)c1c(NS(=O)(=O)c2ccc3nsnc3c2)sc(C)c1C`, the Activity (BMDC [1]) was 0.63 ng/mL, the Activity (THP-1) was 0.2% and the viability at 20 h, 10 µM [2] was 93.1%. It also gave an Activity (BMDC [3]) of -12.7%.

With `CCOC(=O)c1c(NS(=O)(=O)c2cccc3nsnc23)sc2c1CCC2` the Activity (BMDC [1]) was 1.85 ng/mL, the Activity (THP-1) was 94.9% and the viability at 20 h, 10 µM [2] was 127%. It also gave an Activity (BMDC [3]) of 121%.

`CCOC(=O)c1c(NS(=O)(=O)c2cccc3nsnc23)sc(-c2ccco2)c1C` showed an Activity (BMDC [1]) of 2.56 ng/mL, an Activity (THP-1) of 67.1% and a viability at 20 h, 10 µM [2] of 98.7%. It also gave an Activity (BMDC [3]) of 134.2%.

With `CCOC(=O)c1c(NS(=O)(=O)c2cccc3nc(C)[nH]c23)sc(C)c1C` the Activity (BMDC [1]) was 1.42 ng/mL, the Activity (THP-1) was 3.4% and the viability at 20 h, 10 µM [2] was 108%. For the same compound, the Activity (BMDC [3]) was -13.1%.
